Measured values reported in BindingDB's records for doi:10.1021/cb400371r (University of Konstanz, 2013).

What was measured:
[1] = target: T1, Fucose-binding lectin PA-IIL (Pseudomonas aeruginosa (strain ATCC 15692 / DSM 22644 / CIP 104116 / JCM 14847 / LMG 12228 / 1C / PRS 101 / PAO1), UniProt Q9HYN5)
[2] = target: T1, Fucose-binding lectin PA-IIL; remark: listed apart in the source

T1 sequence (Q9HYN5 whole entry): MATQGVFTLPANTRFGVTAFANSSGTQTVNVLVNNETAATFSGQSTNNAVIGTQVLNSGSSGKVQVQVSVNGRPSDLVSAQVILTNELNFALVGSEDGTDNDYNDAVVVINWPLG

Row | SMILES | IC50 [1] | EC50 [2]
1 | COC1O[C@H](CNCc2ccc([N+](=O)O)cc2)[C@@H](O)C(O)[C@@H]1O (some centres not stated) [LecB Inhibitor Amines 3b] | 117 µM | 
2 | COC1O[C@H](Cn2cc(-c3ccc(F)cc3)nn2)[C@@H](O)C(O)[C@@H]1O (some centres not stated) [LecB Inhibitor Triazoles 2g] | 240 µM | 
3 | COC1O[C@H](CNS(=O)(=O)/C=C/c2ccccc2)[C@@H](O)C(O)[C@@H]1O (some centres not stated) [LecB Inhibitor Sulfonamides 5g] | 86.9 µM | 
4 | COC1O[C@H](CN)[C@@H](O)C(O)[C@@H]1O (some centres not stated) [LecB Inhibitor Amines 3e] | 353 µM | 
5 | COC1O[C@H](Cn2cc(-c3cccc(C)c3)nn2)[C@@H](O)C(O)[C@@H]1O (some centres not stated) [LecB Inhibitor Triazoles 2d] | 279 µM | 
6 | COC1O[C@H](CNS(=O)(=O)c2ccc(C)cc2)[C@@H](O)C(O)[C@@H]1O (some centres not stated) [LecB Inhibitor Sulfonamides 5b] | 49.7 µM | 
7 | COC1O[C@H](CNS(=O)(=O)c2ccc([N+](=O)O)cc2)[C@@H](O)C(O)[C@@H]1O (some centres not stated) [LecB Inhibitor Sulfonamides 5d] | 36.1 µM | 
8 | COC1O[C@H](CNC(=O)C(c2ccccc2)c2ccccc2)[C@@H](O)C(O)[C@@H]1O (some centres not stated) [LecB Inhibitor Amides 4f] | 161 µM | 
9 | COC1O[C@H](Cn2cc(CCc3ccccc3)nn2)[C@@H](O)C(O)[C@@H]1O (some centres not stated) [LecB Inhibitor Triazoles 2b] | 264 µM | 
10 | COC1O[C@H](CNC(=O)c2ccc([N+](=O)O)cc2)[C@@H](O)C(O)[C@@H]1O (some centres not stated) [LecB Inhibitor Amides 4c] | 75.8 µM | 
11 | COC1O[C@H](Cn2cc(CO)nn2)[C@@H](O)C(O)[C@@H]1O (some centres not stated) [LecB Inhibitor Triazoles 2a] | 578 µM | 
12 | COC1O[C@H](CNCc2ccccc2)[C@@H](O)C(O)[C@@H]1O (some centres not stated) [LecB Inhibitor Amines 3a] | 227 µM | 
13 | COC1O[C@H](Cn2cc(-c3ccccc3)nn2)[C@@H](O)C(O)[C@@H]1O (some centres not stated) [LecB Inhibitor Triazoles 2c] | 373 µM | 
14 | COC1O[C@H](CNCc2ccc(Cl)cc2)[C@@H](O)C(O)[C@@H]1O (some centres not stated) [LecB Inhibitor Amines 3d] | 212 µM | 
15 | COC1O[C@H](CNC(=O)Cc2ccccc2)[C@@H](O)C(O)[C@@H]1O (some centres not stated) [LecB Inhibitor Amides 4e] | 73.8 µM | 
16 | COC1O[C@H](CNC(C)=O)[C@@H](O)C(O)[C@@H]1O (some centres not stated) [LecB Inhibitor Amides 4a] | 281 µM | 
17 | COC1O[C@H](CNC(=O)c2cc([N+](=O)O)cc([N+](=O)O)c2)[C@@H](O)C(O)[C@@H]1O (some centres not stated) [LecB Inhibitor Amides 4d] | 121 µM | 
18 | CC1O[C@@H](OCCNC(=S)Nc2ccc(-c3c4ccc(=O)cc-4oc4cc(O)ccc34)c(C(=O)O)c2)[C@@H](O)C(O)[C@@H]1O (some centres not stated) [LecB Inhibitor Ligand 6] | 2.74 µM | 0.697 µM
19 | COC1O[C@H](CNS(=O)(=O)c2ccc(Br)cc2)[C@@H](O)C(O)[C@@H]1O (some centres not stated) [LecB Inhibitor Sulfonamides 5c] | 20.9 µM | 
20 | COC1O[C@H](Cn2cc(-c3ccc(C)cc3)nn2)[C@@H](O)C(O)[C@@H]1O (some centres not stated) [LecB Inhibitor Triazoles 2e] | 294 µM | 
21 | COC1O[C@H](CNCc2ccc(C#N)cc2)[C@@H](O)C(O)[C@@H]1O (some centres not stated) [LecB Inhibitor Amines 3c] | 115 µM | 
